Values quoted from earlier work as cited in US12414928B2, “Viral inactivation spray and gargling formulation” (priority 2021, dated 2025).

Experiments:
[1] = tested on: coronavirus disease 2019 (COVID-19)
enveloped virus = conditions: in vitro, pH 4.0

| Compound | virus inactivation [1] [%] | enveloped virus inactivation (enveloped virus) [logs reduction] |
| --- | --- | --- |
| Cl [Hydrochloric Acid] | 100 |  |
| N=C(N)NCCC[C@H](N)C(=O)O [L-Arginine] |  | 5 |
